Results: ChEMBL document CHEMBL4145589, “Aminoisoxazoles as Potent Inhibitors of Tryptophan 2,3-Dioxygenase 2 (TDO2)” (ACS Med Chem Lett, 2018)

Columns and labels:
[1] = molecular target: T1, Tryptophan 2,3-dioxygenase (Homo sapiens, UniProt P48775); assay: Inhibition of TDO2 in human SW48 cells assessed as decrease in conversion of tryptophan to N-formylkynurenine after 30 mins by fluorescence assay; assay type: cell-based
[2] = molecular target: T1, Tryptophan 2,3-dioxygenase; assay: Inhibition of recombinant human TDO2 assessed as decrease in conversion of L-tryptophan to N-formylkynurenine preincubated for 5 mins followed by 0.2 mM substrate addition measured after 15 mins by RapidFire mass spectrometry based fluorescence assay
SW48 = assay: Cytotoxicity against human SW48 cells assessed as reduction in cell viability up to 25 uM by Cell Titer-Glo based luminescence assay
A 172 = assay: Cytotoxicity against human A172 cells assessed as reduction in cell viability up to 25 uM by Cell Titer-Glo based luminescence assay
[3] = molecular target: T1, Tryptophan 2,3-dioxygenase; assay: Competitive inhibition of recombinant human TDO2 assessed as decrease in conversion of L-tryptophan to N-formylkynurenine preincubated for 5 mins followed by 1 mM substrate addition measured after 15 mins by RapidFire mass spectrometry based fluorescence assay
[4] = Metabolic stability in rat whole blood assessed as parent compound remaining at 0.5 mM after 2 hrs by LC-MS/MS analysis; assay type: ADME, tissue-based; conditions: read-out: Stability
[5] = Metabolic stability in dog whole blood assessed as parent compound remaining at 0.5 mM after 2 hrs by LC-MS/MS analysis; assay type: ADME, tissue-based, Canis lupus familiaris; conditions: read-out: Stability
[6] = Metabolic stability in human whole blood assessed as parent compound remaining at 0.5 mM after 2 hrs by LC-MS/MS analysis; assay type: ADME, tissue-based; conditions: read-out: Stability
Cytochrome P450 3A4 = Cytochrome P450 3A4 (Homo sapiens, UniProt P08684); assay: Inhibition of CYP3A4 (unknown origin); assay type: ADME
Cytochrome P450 1A2 = molecular target: T2, Cytochrome P450 1A2 (Homo sapiens, UniProt P05177); assay: Inhibition of CYP1A2 (unknown origin); assay type: ADME
T2 sequence (P05177 whole entry): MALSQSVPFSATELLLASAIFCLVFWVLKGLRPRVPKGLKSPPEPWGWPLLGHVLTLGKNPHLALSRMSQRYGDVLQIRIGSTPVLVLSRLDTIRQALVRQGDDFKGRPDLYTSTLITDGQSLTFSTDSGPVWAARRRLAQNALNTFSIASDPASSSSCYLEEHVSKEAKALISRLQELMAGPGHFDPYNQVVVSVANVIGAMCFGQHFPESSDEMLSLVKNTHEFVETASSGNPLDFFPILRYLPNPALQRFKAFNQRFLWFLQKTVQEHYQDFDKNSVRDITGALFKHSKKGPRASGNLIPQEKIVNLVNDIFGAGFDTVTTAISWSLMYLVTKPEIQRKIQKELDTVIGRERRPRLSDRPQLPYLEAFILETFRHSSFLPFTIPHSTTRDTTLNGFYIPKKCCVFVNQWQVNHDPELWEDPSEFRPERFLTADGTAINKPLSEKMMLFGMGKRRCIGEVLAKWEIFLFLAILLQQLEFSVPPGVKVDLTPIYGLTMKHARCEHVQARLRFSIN

Cytochrome P450 2D6 = Cytochrome P450 2D6 (Homo sapiens, UniProt P10635); assay: Inhibition of CYP2D6 (unknown origin); assay type: ADME
Cytochrome P450 2C9 = Cytochrome P450 2C9 (Homo sapiens, UniProt P11712); assay: Inhibition of CYP2C9 (unknown origin); assay type: ADME
Cytochrome P450 2C19 = Cytochrome P450 2C19 (Homo sapiens, UniProt P33261); assay: Inhibition of CYP2C19 (unknown origin); assay type: ADME
[7] = Metabolic stability in rat whole blood assessed as parent compound remaining at 0.5 mM after 30 mins by LC-MS/MS analysis; assay type: ADME, tissue-based; conditions: read-out: Stability
[8] = Metabolic stability in dog whole blood assessed as parent compound remaining at 0.5 mM after 30 mins by LC-MS/MS analysis; assay type: ADME, tissue-based, Canis lupus familiaris; conditions: read-out: Stability

Sequence of Cytochrome P450 2D6 (P10635 whole entry): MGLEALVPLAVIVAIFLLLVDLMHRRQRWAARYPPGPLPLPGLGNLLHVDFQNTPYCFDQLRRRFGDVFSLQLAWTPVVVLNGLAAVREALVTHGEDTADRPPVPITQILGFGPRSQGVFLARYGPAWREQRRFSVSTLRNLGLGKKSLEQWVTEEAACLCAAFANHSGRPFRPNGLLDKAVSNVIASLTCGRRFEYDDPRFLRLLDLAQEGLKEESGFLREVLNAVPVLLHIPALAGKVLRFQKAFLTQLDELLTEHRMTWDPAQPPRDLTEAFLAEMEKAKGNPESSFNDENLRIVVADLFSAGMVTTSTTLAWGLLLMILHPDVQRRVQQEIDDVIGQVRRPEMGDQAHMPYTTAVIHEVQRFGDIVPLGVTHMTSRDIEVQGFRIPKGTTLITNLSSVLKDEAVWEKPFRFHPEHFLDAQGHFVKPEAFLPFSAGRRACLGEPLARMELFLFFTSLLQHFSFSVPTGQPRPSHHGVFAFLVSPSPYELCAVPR
Sequence of Cytochrome P450 2C19 (P33261 whole entry): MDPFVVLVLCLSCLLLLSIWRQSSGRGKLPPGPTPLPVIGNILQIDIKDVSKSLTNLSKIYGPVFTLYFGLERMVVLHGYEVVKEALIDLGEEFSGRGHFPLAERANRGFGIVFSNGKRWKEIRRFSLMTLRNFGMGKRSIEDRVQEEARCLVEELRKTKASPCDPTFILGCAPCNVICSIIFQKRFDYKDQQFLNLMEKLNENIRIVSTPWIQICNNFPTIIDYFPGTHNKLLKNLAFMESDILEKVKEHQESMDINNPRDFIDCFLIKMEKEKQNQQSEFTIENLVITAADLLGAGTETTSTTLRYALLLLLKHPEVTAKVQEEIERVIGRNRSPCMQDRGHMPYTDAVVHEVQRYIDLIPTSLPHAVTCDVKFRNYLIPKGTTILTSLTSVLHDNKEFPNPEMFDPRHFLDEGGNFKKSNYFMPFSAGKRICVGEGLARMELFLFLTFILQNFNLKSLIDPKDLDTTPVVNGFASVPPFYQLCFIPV
Sequence of Cytochrome P450 2C9 (P11712 whole entry): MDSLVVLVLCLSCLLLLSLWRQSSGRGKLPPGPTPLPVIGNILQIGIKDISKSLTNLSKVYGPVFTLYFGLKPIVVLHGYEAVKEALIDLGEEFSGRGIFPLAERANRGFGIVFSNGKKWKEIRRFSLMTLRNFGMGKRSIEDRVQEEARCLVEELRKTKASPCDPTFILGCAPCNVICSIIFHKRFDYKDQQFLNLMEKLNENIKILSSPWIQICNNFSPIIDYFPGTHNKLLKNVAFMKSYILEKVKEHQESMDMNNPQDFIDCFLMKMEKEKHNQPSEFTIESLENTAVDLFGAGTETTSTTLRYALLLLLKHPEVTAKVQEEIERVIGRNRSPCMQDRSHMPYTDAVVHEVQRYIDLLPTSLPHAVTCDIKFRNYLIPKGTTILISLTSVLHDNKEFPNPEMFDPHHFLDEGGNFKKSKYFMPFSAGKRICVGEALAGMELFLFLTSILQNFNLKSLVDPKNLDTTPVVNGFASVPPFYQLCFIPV
T1 sequence (P48775 whole entry): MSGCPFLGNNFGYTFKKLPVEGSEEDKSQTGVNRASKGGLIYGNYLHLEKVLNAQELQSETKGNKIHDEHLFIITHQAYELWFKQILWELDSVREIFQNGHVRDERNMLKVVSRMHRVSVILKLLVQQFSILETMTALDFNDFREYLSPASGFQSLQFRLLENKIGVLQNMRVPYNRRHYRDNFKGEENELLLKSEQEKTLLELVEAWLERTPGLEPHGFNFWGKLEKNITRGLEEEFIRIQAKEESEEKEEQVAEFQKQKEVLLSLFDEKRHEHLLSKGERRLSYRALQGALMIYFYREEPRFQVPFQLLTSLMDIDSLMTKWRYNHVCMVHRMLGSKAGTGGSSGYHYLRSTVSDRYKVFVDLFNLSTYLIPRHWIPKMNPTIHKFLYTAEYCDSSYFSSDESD
Sequence of Cytochrome P450 3A4 (P08684 whole entry): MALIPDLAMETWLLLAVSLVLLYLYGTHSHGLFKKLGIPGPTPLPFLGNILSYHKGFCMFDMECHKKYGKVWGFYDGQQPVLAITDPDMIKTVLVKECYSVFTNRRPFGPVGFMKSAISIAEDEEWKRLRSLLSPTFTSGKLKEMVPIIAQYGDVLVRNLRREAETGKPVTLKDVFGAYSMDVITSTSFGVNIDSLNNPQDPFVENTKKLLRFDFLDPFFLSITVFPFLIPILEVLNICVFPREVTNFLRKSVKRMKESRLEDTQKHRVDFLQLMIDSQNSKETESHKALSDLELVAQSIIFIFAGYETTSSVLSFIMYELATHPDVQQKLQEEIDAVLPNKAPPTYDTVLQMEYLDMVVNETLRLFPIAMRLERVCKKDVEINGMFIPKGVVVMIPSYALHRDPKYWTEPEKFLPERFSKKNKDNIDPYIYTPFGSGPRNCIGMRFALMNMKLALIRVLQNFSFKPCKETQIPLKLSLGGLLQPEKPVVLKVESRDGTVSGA

Row | EC50 [1] | IC50 [2] | SMILES | Activity (SW48) | Activity (A 172) | further results
1 | 0.95 µM | 0.83 µM | Nc1oncc1-c1ccc(Cl)cc1 | Non-Toxic | Non-Toxic | IC50 [3]: 4.21 µM
2 | > 25 µM | > 25 µM | CNC(=O)c1oncc1-c1ccccc1 | Non-Toxic | Non-Toxic | 
3 | 9.7 µM |  | Cc1noc(N)c1-c1ccccc1 | Non-Toxic | Non-Toxic | remaining at 2 h, 500 µM [4]: 50%; remaining at 2 h, 500 µM [5]: 65%; remaining at 2 h, 500 µM [6]: 84%
4 | > 25 µM | > 25 µM | Nc1cnnn1-c1ccccc1 | Non-Toxic | Non-Toxic | 
5 | 0.67 µM | 0.19 µM | CNc1oncc1-c1ccccc1 | Non-Toxic | Non-Toxic | remaining at 2 h, 500 µM [4]: 0.1%; remaining at 2 h, 500 µM [5]: 0.1%; remaining at 2 h, 500 µM [6]: 0.3%
6 | > 25 µM | > 25 µM | Nc1cnsc1-c1ccccc1 | Non-Toxic | Non-Toxic | 
7 | 0.36 µM | 0.64 µM | Nc1oncc1C1CCCC1 | Non-Toxic | Non-Toxic | 
8 | > 25 µM | > 25 µM | Nc1snnc1-c1ccccc1 | Non-Toxic | Non-Toxic | 
9 | 0.23 µM | 0.29 µM | Nc1oncc1-n1cccn1 | Non-Toxic | Non-Toxic | IC50 (Cytochrome P450 3A4): > 10 µM; IC50 (Cytochrome P450 1A2): > 10 µM; IC50 (Cytochrome P450 2D6): > 10 µM; IC50 (Cytochrome P450 2C9): > 10 µM; IC50 (Cytochrome P450 2C19): > 10 µM
10 | > 25 µM | > 25 µM | Cn1ncc(-c2ccccc2)c1N | Non-Toxic | Non-Toxic | 
11 | 0.077 µM | 0.34 µM | Nc1oncc1-n1cc(F)cn1 | Non-Toxic | Non-Toxic | IC50 (Cytochrome P450 3A4): > 10 µM; IC50 (Cytochrome P450 1A2): > 10 µM; IC50 (Cytochrome P450 2D6): > 10 µM; IC50 (Cytochrome P450 2C9): > 10 µM; IC50 (Cytochrome P450 2C19): > 10 µM; remaining at 2 h, 500 µM [6]: 91%
12 | 1.5 µM | 7.8 µM | Nc1oncc1C1CCCCC1 | Non-Toxic | Non-Toxic | 
13 | 0.34 µM | 1.6 µM | Cc1cnn(-c2cnoc2N)c1 | Non-Toxic | Non-Toxic | 
14 | 1.5 µM | 3.1 µM | COc1cccc(-c2cnoc2N)c1 | Non-Toxic | Non-Toxic | 
15 | 0.81 µM | 0.029 µM | Nc1oncc1-c1cccs1 | Non-Toxic | Non-Toxic | 
16 | 1.4 µM | 2.3 µM | Nc1oncc1-c1cccnc1 | Non-Toxic | Non-Toxic | 
17 | 18 µM | 4.4 µM | OCc1oncc1-c1ccccc1 | Non-Toxic | Non-Toxic | 
18 | > 25 µM | > 25 µM | Nc1cnoc1-c1ccccc1 | Non-Toxic | Non-Toxic | 
19 | > 25 µM | 0.27 µM | Nc1nnsc1-c1ccccc1 | Non-Toxic | Non-Toxic | 
20 | 0.085 µM | 0.14 µM | Nc1oncc1-c1ccccc1 | Non-Toxic | Non-Toxic | IC50 (Cytochrome P450 3A4): > 10 µM; IC50 (Cytochrome P450 1A2): > 10 µM; IC50 (Cytochrome P450 2D6): > 10 µM; IC50 (Cytochrome P450 2C9): > 10 µM; IC50 (Cytochrome P450 2C19): > 10 µM; remaining at 2 h, 500 µM [4]: 0%; remaining at 2 h, 500 µM [5]: 0%; remaining at 2 h, 500 µM [6]: 0%
21 | > 25 µM | > 25 µM | c1ccc(-c2cnoc2)cc1 | Non-Toxic | Non-Toxic | 
22 | 0.21 µM | 0.58 µM | Nc1oncc1-c1ccc(F)cc1 | Non-Toxic | Non-Toxic | 
23 | 0.81 µM | 1.6 µM | Cc1ccn(-c2cnoc2N)n1 | Non-Toxic | Non-Toxic | 
24 | 0.82 µM | 1.7 µM | Nc1oncc1-c1ccccn1 | Non-Toxic | Non-Toxic | 
25 | > 25 µM | > 25 µM | Nc1nncn1-c1ccccc1 | Non-Toxic | Non-Toxic | 
26 | > 25 µM | 18 µM | Nc1sncc1-c1ccccc1 | Non-Toxic | Non-Toxic | 
27 | 0.099 µM | 0.028 µM | Nc1oncc1-c1ccsc1 | Non-Toxic | Non-Toxic | IC50 (Cytochrome P450 3A4): > 10 µM; IC50 (Cytochrome P450 1A2): > 10 µM; IC50 (Cytochrome P450 2D6): > 10 µM; IC50 (Cytochrome P450 2C9): > 10 µM; IC50 (Cytochrome P450 2C19): > 10 µM; remaining at 0.5 h, 500 µM [7]: 3%; remaining at 0.5 h, 500 µM [8]: 3%
28 | 0.25 µM | 0.5 µM | Nc1oncc1-c1cccc(Cl)c1 | Non-Toxic | Non-Toxic | IC50 [3]: 2.94 µM
29 | > 25 µM | > 25 µM | NC(=O)c1oncc1-c1ccccc1 | Non-Toxic | Non-Toxic | 
30 | > 25 µM | > 25 µM | Nc1[nH]ncc1-c1ccccc1 | Non-Toxic | Non-Toxic | 
